Test results reported in patent publication US20230312587A1, “PTERIDINONE COMPOUNDS AND USES THEREOF” (Vertex Pharmaceutical Incorporated, priority 2018, published 2023).
Like-named read-outs stand apart in the source and are kept apart here.

Tests used:
Plk1 = Plk1 (Homo sapiens (Human), UniProt P53350); test: PLK1 inhibition assay (radioactive-phosphate incorporation); type: biochemical; settings: Ki(app), read-out: PLK1 - 33P.ENZ - CB 10 Ki
Summary of the method: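 Radioactive-phosphate incorporation with 15 nM Plk1 and 9 µM Sam68 substrate, 20 µM [γ-33P]ATP, in 25 mM HEPES pH 7.5, 10 mM MgCl2, 25 mM NaCl, 2 mM DTT, 1.5% DMSO, room temperature, 45 min. Stopped with TCA/cold ATP, filtered, scintillation counted. Ki(app) from non-linear regression of background-corrected initial rates.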

HepG2 WFS1 KO = test: In vitro cell viability (CellTiter-Glo), HepG2 WFS1 KO; type: cell-based; settings: for IC50: Homo sapiens, 96 hours
Source text: A double cleavage strategy was employed to remove large fragments from the WFS1 locus. Suitable target sites in WFS1 exon 8 were first selected using CRISPR design software to rank suitable target sites and computationally predict off-target sites for each intended target. Six top guide RNA sequences are identified and screened for activity using the Surveyor Mutation Detection Kit (Integrated DNA Technologies). Then, the best 2 guide RNAs were cloned into GeneArt OFP CRISPR nuclease vectors (Thermofisher, Cat #A21174) separately and co-transfected into HepG2 cells using nucleofection (4D Nucleofector X, Lonza). Cells were sorted by FACS 48 hrs later to enrich for the OFP positive cell population. The OFP positive cell population were plated into 96-well plates at 0.5-5 cells/well to isolate clonal cell lines. After allowing cells to expand for 2-3 weeks, plates were inspected for presence of colonies. When colonies became more than 70% confluent, they were dissociated with trypsin and were further expanded. Cell clones with homozygous double cleavage of WFS1 exon 8 were detected with PCR and confirmed with DNA sequencing.
HEK293 cells containing empty pCLPCx vector (HEK293 empty), HEK293 cells stably over-expression WFS1 (HEK293 WFS1), HepG2, and HepG2 cells where WFS1 was depleted via CRISPR/Cas9 (HepG2 WFS1 KO) cells were plated into 96-well black plates (Corning, product #3904) in 100 microliters of complete DMEM cell culture media [DMEM (Life Technologies, product #11960-051) media supplemented with 10% FBS (Hyclone, catalog #SH30071.03), antimycotic/antibiotic (Life Technologies, product #15240-062), and Glutamax (Life Technologies, product #35050-061)] at 1,000 (HEK293) or 5,000 (HepG2) cells per well. Cells were allowed to attach and grow overnight, after which compounds are added at various concentrations. Cell viability was assessed 96 hrs after compound addition with CellTiter-Glo reagent (Promega, catalog #G7570) according to manufacturer's protocol and measurement on a Pherastar luminescence plate reader (BMG Labtech).
To determine the effect of WFS1 depletion on compound mediated inhibition of cell viability, parental HepG2 cells and HepG2 cells where WFS1 was deleted by CRISPR/Cas9 were exposed to increasing concentrations of either Compound 136 or Compound 253 for 96 hours after which time viability was determined using Cell Titer Glo reagent (Promega). […] The IC50s for the viability of both the HepG2 parental and WFS1 knockout cells are summarized in Table 47: A<0.5 μM; 0.5 μM≤<2.0 μM; 2.0 μM≤C<10.0 μM; D≥[…].

[1] = test system: non-small cell lung cancer (NSCLC) adenocarcinoma line D33966; test: In vivo efficacy, NSCLC patient derived xenograft OD33966; design: species or system nu/nu mice; settings: Mus musculus, NSCLC PDX OD33966, oral, read-out: % TGI
Experimental: Female immune deficient mice (Charles River, 4-6 wks age) were anesthetized with Ketamine-Xylazine (140 mg/kg-14 mg/kg ip) and shaved. Puralube eye ointment was applied to the eyes to prevent desiccation of the corneas. Betadine and 70% ethanol was applied to the shaved location to sterilize the skin at the location of the incision. The animals were placed in a biosafety cabinet for the duration of the surgery. Using scissors, an 8 to 10 mm incision was made in the lateral flank of the skin. A tumor fragment weighing between 50 and 150 mg was placed under the skin at the incision site using forceps, and staples were used to close the incision. The staples were removed 5 to 7 days after surgery. Starting approximately two weeks after implantation, animals were weighed, and tumors were measured using caliper twice weekly. Tumor volume was calculated using the formula: volume=length×width^2×0.52.
Compound administration began when xenografts reached approximately 100-300 mm3 and continued until control xenografts reached […] of the animal's body weight. Test compounds were administered orally by gastric gavage. Percent tumor growth inhibition (TG) was calculated on the indicated treatment day. Percent TGI is defined as: [1−(del T/del C)]×100%, where del T is the final minus initial average volumes of the treated group, and del C is the final minus initial average volumes of the control group. […] The tested compounds were administered orally. Vehicle control consisted of either 0.5% methylcellulose/0.1% sodium lauryl sulfate or 20% captisol. Tumor volumes were determined by caliper measurement twice a week.

Sequence of Plk1 (P53350 whole entry, species assumed): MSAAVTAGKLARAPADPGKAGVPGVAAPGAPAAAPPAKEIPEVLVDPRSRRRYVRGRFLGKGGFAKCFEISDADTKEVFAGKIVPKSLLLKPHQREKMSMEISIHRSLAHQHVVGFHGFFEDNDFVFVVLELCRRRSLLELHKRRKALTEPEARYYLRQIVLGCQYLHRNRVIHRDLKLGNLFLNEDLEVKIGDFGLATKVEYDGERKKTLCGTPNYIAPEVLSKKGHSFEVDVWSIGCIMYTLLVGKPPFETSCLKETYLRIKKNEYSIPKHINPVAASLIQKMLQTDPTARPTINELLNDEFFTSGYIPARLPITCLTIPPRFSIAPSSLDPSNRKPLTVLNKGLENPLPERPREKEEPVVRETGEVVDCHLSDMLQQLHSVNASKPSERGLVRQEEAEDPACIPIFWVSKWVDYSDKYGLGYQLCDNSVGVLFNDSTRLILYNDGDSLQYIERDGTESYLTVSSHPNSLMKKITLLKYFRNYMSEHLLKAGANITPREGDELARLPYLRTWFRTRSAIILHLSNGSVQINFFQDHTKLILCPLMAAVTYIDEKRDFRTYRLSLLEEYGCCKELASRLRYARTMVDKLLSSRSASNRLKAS

Ki (Plk1) [µM] | IC50 (HepG2 WFS1 KO; cell viability, HepG2 WFS1 KO, Cell Titer Glo, read-out: IC50) [µM] | IC50 (HepG2 WFS1 KO; cell viability, HepG2 WFS1 KO, read-out: IC50 class) [µM] | IC50 (HepG2 WFS1 KO; HepG2 WFS1 knockout, read-out: HepG2 WFS1 KO viability) [µM] | Compound | shift in IC50 on depletion of WFS1 from HepG2 cells (HepG2 WFS1 KO; cell viability, WFS1 KO vs parental HepG2, 96 hours) | inhibition in vivo at 100 mg/kg ([1]; 336 h, 100 mpk qd, treatment day 14) [%] | inhibition in vivo at 200 mg/kg ([1]; 456 h, 200 mpk bid, treatment day 19) [%]
> 4 | 4.4 | 2 to 10 |  | Cc1nc(N[C@H]2C[C@H](Oc3cc(F)c(F)c(F)c3)C2)nc2c1N(C)C(=O)[C@H](C)N2C [Compound 253, (7S)-4,5,7,8-tetramethyl-2-((trans-3-(3,4,5-trifluorophenoxy)cyclobutyl)amino)-7,8-dihydropteridin-6(5H)-one] | greater than 5 fold | 96.6 | 
> 4 |  |  | ≥ 10 | Cc1nc(NCc2cnn(Cc3ccc(F)cc3)c2)nc2c1N(C)C(=O)[C@H](C)N2C [Compound 1, (7S)-2-(((1-(4-fluorobenzyl)-1H-pyrazol-4-yl)methyl)amino)-4,5,7,8-tetramethyl-7,8-dihydropteridin-6(5H)-one] |  |  | 94.5
